Assay results reported in US20060069132A1, “Azolecarboxamide herbicides” (priority 2004, published 2006).

What was measured:
barnyardgrass [1] = test: Test B pre-/postemergence herbicide test; format: in vivo, Echinochloa crus-galli
In short: (§1)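 Greenhouse pot assay with simultaneous preemergence (treated seed) and postemergence (2–18 cm seedlings) applications of surfactant-containing, non-phytotoxic solvent formulations. Response scored visually 13–15 days later on a 0–100 scale, 100 meaning complete control.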

Surinam grass = test: Test B pre-/postemergence herbicide test; format: in vivo, Urochloa decumbens
In short: as §1

cocklebur = test: Test B pre-/postemergence herbicide test; format: in vivo, Xanthium strumarium
In short: as §1

corn = test: Test B pre-/postemergence herbicide test; format: in vivo, Zea mays
In short: as §1

large crabgrass = test: Test B pre-/postemergence herbicide test; format: in vivo, Digitaria sanguinalis
In short: as §1

giant foxtail = test: Test B pre-/postemergence herbicide test; format: in vivo, Setaria faberi
In short: as §1

lambsquarters = test: Test B pre-/postemergence herbicide test; format: in vivo, Chenopodium album
In short: as §1

morningglory = test: Test B pre-/postemergence herbicide test; format: in vivo, Ipomoea coccinea
In short: as §1

pigweed = test: Test B pre-/postemergence herbicide test; format: in vivo, Amaranthus retroflexus
In short: as §1

blackgrass = test: Test B postemergence herbicide test; format: in vivo, Alopecurus myosuroides
In short: (§2)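 Greenhouse test; postemergence application to plants at 1–4 leaves (2–18 cm); paddy species at 2 leaves; evaluated visually vs controls at 13–15 days; scale 0–100 (100 = complete control).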

wheat = test: Test B postemergence herbicide test; format: in vivo, Triticum aestivum; parameters: key to Wheat plant response rating: 0 = no effect, 100 = complete control
In short: (§3)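 Read-out: visual comparison with controls, scored 0 to 100, where 100 means complete control and 0 no effect. Formulated chemicals were applied postemergence to plants 2–18 cm tall (1- to 4-leaf), or to flooded-paddy plants at the 2-leaf stage, then held 13 to 15 days under glass.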

wild oat = test: Test B postemergence herbicide test; format: in vivo, Avena fatua
In short: as §3

rice = test: Test B flooded paddy test; format: in vivo, Oryza sativa; conditions: 1000 g ai/ha, scale 0 to 100 (0 no effect, 100 complete control)
In short: as §2

[2] = system: small flower umbrella sedge; test: Test B flooded paddy test; format: in vivo, Cyperus difformis; conditions: 1000 g ai/ha, scale 0 to 100 (0 no effect, 100 complete control)
In short: as §2

ducksalad = test: Test B flooded paddy test; format: in vivo, Heteranthera limosa; conditions: 1000 g ai/ha, scale 0 to 100 (0 no effect, 100 complete control)
In short: as §2

barnyardgrass [3] = test: Test B flooded paddy test; format: in vivo, Echinochloa crus-galli; conditions: 1000 g ai/ha, scale 0 to 100 (0 no effect, 100 complete control)
In short: as §2

[4] = 125 g ai/ha; 0 = no effect, 100 = complete control; preemergence
[5] = 500 g ai/ha; visual rating, 0 = no effect, 100 = complete control; preemergence
[6] = postemergence, 125 g ai/ha; visual rating, scale 0 (no effect) to 100 (complete control)
[7] = postemergence, 500 g ai/ha; visual rating, scale 0 (no effect) to 100 (complete control)
[8] = 125 g ai/ha; visual rating, scale 0 (no effect) to 100 (complete control); postemergence
[9] = postemergence, 500 g ai/ha; scale 0 to 100, 0 is no effect, 100 is complete control

CCc1nn(C(C)(C)C)cc1C(=O)Nc1cc(C(=O)N(CC)CC)ccc1F [Compound 223]
Barnyardgrass plant response rating (0 to 100 scale) (barnyardgrass [1]; [4]): 20
Plant response rating, Barnyardgrass (barnyardgrass [1]; [5]): 80
Barnyardgrass plant response rating (barnyardgrass [1]; [6]): 10
Barnyardgrass plant response rating (barnyardgrass [1]; [7]): 20
Surinam Grass plant response rating (0 to 100 scale) (Surinam grass; [4]): 20
Plant response rating, Surinam Grass (Surinam grass; [5]): 90
Surinam Grass plant response rating (Surinam grass; [6]): 10
Surinam Grass plant response rating (Surinam grass; [7]): 10
Cocklebur plant response rating (0 to 100 scale) (cocklebur; [4]): 0
Plant response rating, Cocklebur (cocklebur; [5]): 20
Cocklebur plant response rating (cocklebur; [6]): 10
Cocklebur plant response rating (cocklebur; [7]): 30
Corn plant response rating (0 to 100 scale) (corn; [4]): 10
Plant response rating, Corn (corn; [5]): 80
Corn plant response rating (corn; [6]): 10
Corn plant response rating (corn; [7]): 20
Crabgrass, Large plant response rating (0 to 100 scale) (large crabgrass; [4]): 50
Plant response rating, Crabgrass, Large (large crabgrass; [5]): 100
Crabgrass, Large plant response rating (large crabgrass; [6]): 10
Crabgrass, Large plant response rating (large crabgrass; [7]): 20
Foxtail, Giant plant response rating (0 to 100 scale) (giant foxtail; [4]): 10
Plant response rating, Foxtail, Giant (giant foxtail; [5]): 80
Foxtail, Giant plant response rating (giant foxtail; [6]): 10
Foxtail, Giant plant response rating (giant foxtail; [7]): 20
Lambsquarters plant response rating (0 to 100 scale) (lambsquarters; [4]): 80
Plant response rating, Lambsquarters (lambsquarters; [5]): 100
Lambsquarters plant response rating (lambsquarters; [6]): 60
Lambsquarters plant response rating (lambsquarters; [7]): 80
Morningglory plant response rating (0 to 100 scale) (morningglory; [4]): 10
Plant response rating, Morningglory (morningglory; [5]): 30
Morningglory plant response rating (morningglory; [6]): 40
Morningglory plant response rating (morningglory; [7]): 80
Pigweed plant response rating (0 to 100 scale) (pigweed; [4]): 90
Plant response rating, Pigweed (pigweed; [5]): 100
Pigweed plant response rating (pigweed; [6]): 60
Pigweed plant response rating (pigweed; [7]): 70
Blackgrass plant response rating (blackgrass; [6]): 0
Blackgrass plant response rating (blackgrass; [7]): 0
Wheat plant response rating (wheat; [6]): 0
Wheat plant response rating (wheat; [7]): 0
Oat, Wild plant response rating (wild oat; [6]): 0
Oat, Wild plant response rating (wild oat; [7]): 30
Rice plant response rating (rice; visual rating, 13 to 15 days): 70
Sedge, Umbrella plant response rating ([2]; visual rating, 13 to 15 days): 80
Ducksalad plant response rating (ducksalad; visual rating, 13 to 15 days): 90
Barnyardgrass plant response rating (barnyardgrass [3]; visual rating, 13 to 15 days): 40

CCOC(=O)c1cccc(NC(=O)c2cc(C(C)(C)C)nn2C)n1 [Compound 313]
Barnyardgrass plant response rating (0 to 100 scale) (barnyardgrass [1]; [4]): 80
Barnyardgrass plant response rating (barnyardgrass [1]; [8]): 30
Plant response rating, Barnyardgrass (barnyardgrass [1]; [5]): 90
Barnyardgrass plant response rating (barnyardgrass [1]; [9]): 50
Surinam Grass plant response rating (0 to 100 scale) (Surinam grass; [4]): 30
Surinam Grass plant response rating (Surinam grass; [8]): 10
Plant response rating, Surinam Grass (Surinam grass; [5]): 80
Surinam Grass plant response rating (Surinam grass; [9]): 20
Cocklebur plant response rating (0 to 100 scale) (cocklebur; [4]): 0
Cocklebur plant response rating (cocklebur; [8]): 0
Plant response rating, Cocklebur (cocklebur; [5]): 10
Cocklebur plant response rating (cocklebur; [9]): 90
Corn plant response rating (0 to 100 scale) (corn; [4]): 10
Corn plant response rating (corn; [8]): 10
Plant response rating, Corn (corn; [5]): 30
Corn plant response rating (corn; [9]): 20
Crabgrass, Large plant response rating (0 to 100 scale) (large crabgrass; [4]): 30
Crabgrass, Large plant response rating (large crabgrass; [8]): 10
Plant response rating, Crabgrass, Large (large crabgrass; [5]): 90
Crabgrass, Large plant response rating (large crabgrass; [9]): 20
Foxtail, Giant plant response rating (0 to 100 scale) (giant foxtail; [4]): 40
Foxtail, Giant plant response rating (giant foxtail; [8]): 20
Plant response rating, Foxtail, Giant (giant foxtail; [5]): 100
Foxtail, Giant plant response rating (giant foxtail; [9]): 50
Lambsquarters plant response rating (0 to 100 scale) (lambsquarters; [4]): 100
Lambsquarters plant response rating (lambsquarters; [8]): 60
Plant response rating, Lambsquarters (lambsquarters; [5]): 100
Lambsquarters plant response rating (lambsquarters; [9]): 90
Morningglory plant response rating (0 to 100 scale) (morningglory; [4]): 10
Morningglory plant response rating (morningglory; [8]): 0
Plant response rating, Morningglory (morningglory; [5]): 40
Morningglory plant response rating (morningglory; [9]): 80
Pigweed plant response rating (0 to 100 scale) (pigweed; [4]): 100
Pigweed plant response rating (pigweed; [8]): 60
Plant response rating, Pigweed (pigweed; [5]): 100
Pigweed plant response rating (pigweed; [9]): 70
Blackgrass plant response rating (blackgrass; [8]): 0
Blackgrass plant response rating (blackgrass; [9]): 10
Wheat plant response rating (wheat; [8]): 0
Wheat plant response rating (wheat; [9]): 10
Oat, Wild plant response rating (wild oat; [8]): 20
Oat, Wild plant response rating (wild oat; [9]): 30
Rice plant response rating (rice): 80
Sedge, Umbrella plant response rating [2]: 80
Ducksalad plant response rating (ducksalad): 80
Barnyardgrass plant response rating (barnyardgrass [3]): 70
